Measured values reported in patent US7169580B1, “Protein having PGE2 synthase activity and use thereof” (Chugai Seiyaku Kabushiki Kaisha, priority 2000, dated 2007).
Where a chain is given by its changes, count along the chain named. “Also recorded” adds a separate entry of the source.

How the values were obtained:
Format in all cases: biochemical
PGES-2 = target: T1, PGES-2 (Homo sapiens, UniProt O14684); assay: PGES activity in HEK293 cells transfected with PGES-2; settings: HEK293 cells transfected with PGES-2, coexistence of CDNB
T1 construct: expressed in transfected cells; host or cells: HEK293
T1 sequence (O14684 1-152): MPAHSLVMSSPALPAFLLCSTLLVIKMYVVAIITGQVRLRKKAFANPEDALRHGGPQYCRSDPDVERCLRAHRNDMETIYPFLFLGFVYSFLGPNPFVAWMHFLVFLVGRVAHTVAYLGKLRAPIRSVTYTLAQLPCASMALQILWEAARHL
Description: (§1) PGES activity was measured as follows: Cells suspended in 20 mmol/L Tris-hydrochloride buffer (pH 7.4) were homogenized using ultrasonic homogenizer (Branson Sonifier Model 200) and centrifuged at 800×g for 5 minutes at 4° C., and the supernatant was used as the cell lysate in the following. 0.5 μg of PGH2 was added to the lysate, which was suspended with 0.1 mol/L Tris-hydrochloride buffer (pH 8.0) containing 1 mmol/L GSH, with a protein content of 10 μg, was incubated for 30 seconds at 24° C., and then 8 mmol/L FeCl2 was added to terminate the reaction. The amount of produced PGE2 was measured by Enzyme Immunoassay Kit (Cayman), and PGES activity was expressed as the amount of PGE2 produced per 30 seconds, per 10 μg of protein (ng/30 sec/10 μg protein).

PGES-1 = target: T2, PGES-1 (Homo sapiens, UniProt Q15185); assay: PGES activity in lysate of HEK293 cells transfected with PGES-1 cDNA; settings: lysate of HEK293 cells transfected with PGES-1, coexistence of CDNB
T2 construct: the cDNA of full-length human progesterone receptor complex component protein p23 was isolated by RT-PCR; expressed in transfected cells; host or cells: HEK293
T2 sequence (Q15185 1-160): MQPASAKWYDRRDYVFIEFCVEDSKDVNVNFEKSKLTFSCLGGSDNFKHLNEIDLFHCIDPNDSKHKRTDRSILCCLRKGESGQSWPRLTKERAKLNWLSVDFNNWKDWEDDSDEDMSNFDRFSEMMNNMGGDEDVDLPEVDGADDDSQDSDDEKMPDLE
Description: as §1
Peptide mapping of PGES-1 protein was carried out using V8 protease, and 3 fragments among the peptide fragments were analyzed by N-terminal amino acid sequence analyzer to determine the partial amino acid sequence thereof. According to GenBank database search with one of these amino acid sequences, the sequence completely matched to a portion of a known sequence reported as the human progesterone receptor complex component protein p23 (Johnson, J L et al., Mol. Cell. Biol., 14:1956–63, 1994). […] Thus, the cDNA was confirmed to encode the desired PGES.

[1] = target: T3, PGES activity of peak C (PGES-1) (Rattus norvegicus, UniProt P83868); assay: PGES activity of Superdex 200 gel filtration fractions of rat brain soluble fraction; settings: Superdex 200 peak C (approximately 50 kDa), in contrast to peaks A and B
T3 construct: from tissue; host or cells: brain of LPS-administered rat: 100,000 x g supernatant, 60-80% ammonium sulfate, DEAE-Sephacel, Superdex 200 peak C
T3 sequence (P83868 1-160): T2 sequence (Q15185 1-160) with N128D, N129H
Description: as §1
150 μg/kg body LPS (Salmonella minnesota: Re595) was administered intravenously from rat tail. Rat brain was removed 2 days after the injection and was homogenized using Potter's homogenizer at 4° C. […]
A protein of a molecular weight of about 27 kDa, corresponding with the PGES activity (PGES-1), was obtained by SDS electrophoretic analysis of peak C (FIG. 3, bottom). The production of this protein was predicted to elevate in response to inflammatory stimulus due to the fact that large amount of the protein was detected in LPS-administered rats than in normal rats.

**Q.** Which results are given for `O=[N+]([O-])c1ccc(Cl)c([N+](=O)[O-])c1` [CDNB, 1-chloro-2,4-dinitrobenzene]?
**A.** effect of CDNB on GSH-dependent PGES activity of recombinant PGES-2 (PGES-2): CDNB insensitive; also recorded: not suppressed; effect of CDNB on GSH-dependent PGES activity of recombinant PGES-1 (PGES-1): CDNB sensitive; also recorded: suppressed; effect of CDNB on PGES activity of peak C [1]: strongly inhibited
